From patent publication US10669272B2, “Substituted naphthyridinone compounds useful as T cell activators” (BRISTOL-MYERS SQUIBB COMPANY, priority 2018, dated 2020)
pEC50, pIC50: −log10 of the molar value. Read-outs that look alike come from different tables or passages of the source.

Tests used:
human DGKα = target: T1, human DGKα (Homo sapiens, UniProt P23743); assay: DGKα LIPGLO assay (extruded liposome substrate), in vitro DGK inhibition; assay type: biochemical; conditions: read-out: DGKa LIPGLO IC50
T1 construct: TVMV protease cleavage site (C); Hexa-His (C); made in house; host or cells: Sf9 insect cells (baculovirus, Bac-to-Bac)
T1 sequence (P23743 with tags, fused parts or gaps): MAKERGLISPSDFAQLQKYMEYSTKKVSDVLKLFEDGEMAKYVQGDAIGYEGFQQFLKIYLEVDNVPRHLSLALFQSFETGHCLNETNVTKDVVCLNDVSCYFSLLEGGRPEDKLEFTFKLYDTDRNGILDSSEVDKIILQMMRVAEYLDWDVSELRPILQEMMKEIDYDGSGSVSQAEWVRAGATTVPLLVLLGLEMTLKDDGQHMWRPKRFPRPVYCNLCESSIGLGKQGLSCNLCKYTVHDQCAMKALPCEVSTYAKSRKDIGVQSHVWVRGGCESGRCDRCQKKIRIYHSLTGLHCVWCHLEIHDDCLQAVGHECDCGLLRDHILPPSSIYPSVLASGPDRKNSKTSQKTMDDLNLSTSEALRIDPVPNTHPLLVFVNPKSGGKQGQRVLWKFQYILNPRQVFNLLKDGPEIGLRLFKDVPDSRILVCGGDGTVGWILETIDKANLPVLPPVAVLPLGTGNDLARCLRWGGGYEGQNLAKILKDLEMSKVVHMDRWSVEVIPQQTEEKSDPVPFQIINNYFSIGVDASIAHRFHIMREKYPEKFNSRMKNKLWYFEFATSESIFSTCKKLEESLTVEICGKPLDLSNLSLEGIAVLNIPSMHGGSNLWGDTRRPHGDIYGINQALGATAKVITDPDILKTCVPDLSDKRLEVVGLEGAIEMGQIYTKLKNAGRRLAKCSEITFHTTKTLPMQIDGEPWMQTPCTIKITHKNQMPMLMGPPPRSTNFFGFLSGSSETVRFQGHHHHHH

human DGKζ = target: T2, human DGKζ (Homo sapiens, UniProt Q13574); assay: DGKζ LIPGLO assay (extruded liposome substrate), in vitro DGK inhibition; assay type: biochemical; conditions: read-out: DGKz LIPGLO IC50
T2 construct: TVMV protease cleavage site (C); Hexa-His (C); made in house; host or cells: Sf9 insect cells (baculovirus, Bac-to-Bac)
T2 sequence (Q13574 with tags, fused parts or gaps isoform Q13574-4): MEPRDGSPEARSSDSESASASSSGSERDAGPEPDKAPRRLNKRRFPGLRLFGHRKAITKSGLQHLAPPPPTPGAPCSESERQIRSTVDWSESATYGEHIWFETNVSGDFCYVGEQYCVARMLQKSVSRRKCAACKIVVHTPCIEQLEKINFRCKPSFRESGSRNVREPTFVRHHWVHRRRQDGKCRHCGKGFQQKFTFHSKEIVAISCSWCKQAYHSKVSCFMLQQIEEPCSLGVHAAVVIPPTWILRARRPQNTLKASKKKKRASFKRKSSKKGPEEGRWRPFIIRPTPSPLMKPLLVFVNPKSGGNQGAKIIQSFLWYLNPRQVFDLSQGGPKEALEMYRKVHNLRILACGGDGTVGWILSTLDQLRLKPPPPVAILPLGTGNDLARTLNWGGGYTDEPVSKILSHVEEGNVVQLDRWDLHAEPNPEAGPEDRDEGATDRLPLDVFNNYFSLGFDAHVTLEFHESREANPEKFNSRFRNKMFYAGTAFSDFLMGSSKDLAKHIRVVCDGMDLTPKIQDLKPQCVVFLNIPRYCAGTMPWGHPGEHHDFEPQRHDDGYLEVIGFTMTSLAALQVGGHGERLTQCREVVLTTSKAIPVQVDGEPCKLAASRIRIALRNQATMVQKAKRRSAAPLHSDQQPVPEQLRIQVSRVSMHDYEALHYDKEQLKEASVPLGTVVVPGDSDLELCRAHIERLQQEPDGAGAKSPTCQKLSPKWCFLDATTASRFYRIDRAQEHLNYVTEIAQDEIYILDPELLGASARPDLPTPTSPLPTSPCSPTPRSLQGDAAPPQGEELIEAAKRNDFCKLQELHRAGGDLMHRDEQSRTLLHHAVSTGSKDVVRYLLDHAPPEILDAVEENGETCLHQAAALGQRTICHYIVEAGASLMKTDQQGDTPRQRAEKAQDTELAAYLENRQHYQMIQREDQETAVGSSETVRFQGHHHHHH

Human venous whole blood = assay: Human whole blood IFN-γ assay; assay type: cell-based; conditions: human whole blood, read-out: INFg Whole Blood Normalized Agonist EC50;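 further: blood from healthy donors exposed to compound for 1 h before stimulation with anti-CD3 and anti-CD28 at 1 µg/mL each, IFN-γ quantified in supernatant by AlphaLISA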
Method: Human Whole Blood IFN-γ Assay
Human venous whole blood (22.5 μL per well), obtained from healthy donors, was pre-treated with compounds for one hour at 37° C. in a humidified 95% air/5% CO2 incubator. The blood was stimulated with 2.5 μL anti-human CD3 and anti-CD28 mAb at a final concentration of 1 μg/mL each for 24 hours at 37° C. IFN-γ in the supernatants was measured using AlphLISA kit (Cat # AL217).

[1] = normalized to 3 μM reference compound with anti-CD3 plus anti-CD28 as 100% activation
[2] = Homo sapiens, 24 h, anti-CD3 plus anti-CD28, 24 hours, 3 μM reference compound = 100% activation
[3] = Homo sapiens, 24 h, normalized to 3 μM reference compound with anti-CD3 plus anti-CD28 as 100% activation
[4] = anti-CD3 plus anti-CD28, 24 hours, 3 μM reference compound = 100% activation

Compound | pIC50 (human DGKα; liposome (LIPGLO) assay) | pIC50 (human DGKζ; liposome (LIPGLO) assay) | pEC50 (Human venous whole blood; [1]) | pIC50 (human DGKα; DGKα liposome (LIPGLO) assay) | pIC50 (human DGKζ; DGKζ liposome (LIPGLO) assay) | pEC50 (Human venous whole blood; [2]) | pEC50 (Human venous whole blood; [3]) | pEC50 (Human venous whole blood; [4])
CCC(c1ccc(OC(F)(F)F)cc1F)N1C[C@H](C)N(c2cc(=O)n(C)c3ccc(C#N)nc23)C[C@H]1CC (single isomer, unassigned) [Example 421] | 5.11 | 5.74 | 5.59 |  |  |  |  | 
[2H]C(CC)(c1ccc(F)cc1)N1C[C@H](C)N(c2cc(=O)n(C)c3ccc(C#N)nc23)C[C@H]1C (single isomer, unassigned) [Example 574] | 5.74 | 4.55 | 5.14 |  |  |  |  | 
CC(c1ccc(F)c(F)c1)N1CCN(c2c(C#N)c(=O)n(C)c3ccc(C#N)nc23)C[C@H]1C (stereo partly drawn) [Example 956] |  |  |  | 6.11 | 5.12 | 5.40 |  | 
Cc1ccc(C(c2ccc(C)cn2)N2C[C@H](C)N(c3cc(=O)n(C)c4ccc(C#N)nc34)C[C@H]2C)cc1 (single isomer, unassigned) [Example 457] | 6.85 | 5.96 | 6.23 |  |  |  |  | 
CCC(c1cc(OC(F)(F)F)ccc1F)N1C[C@H](C)N(c2cc(=O)n(C)c3ccc(C#N)nc23)C[C@H]1C (stereo partly drawn) [Example 1207] | 4.85 | 5.85 | 4.89 |  |  |  |  | 
Cc1ccc(C(c2cccc(F)c2)N2C[C@H](C)N(c3cc(=O)n(C)c4ccc(C#N)nc34)C[C@H]2C)cn1 (stereo partly drawn) [Example 417, 8-((2S,5R)-4-((3-fluorophenyl)(6-methylpyridin-3-yl)methyl)-2,5-dimethylpiperazin-1-yl)-5-methyl-6-oxo-5,6-dihydro-1,5-naphthyridine-2-carbonitrile] | 4.70 | 4.96 | 5.11 |  |  |  |  | 
CC[C@H]1CN(C(C)c2ccc(C(F)(F)F)cc2F)[C@H](CC)CN1c1cc(=O)n(C)c2ccc(C#N)nc12 (single isomer, unassigned) [Example 1365] | 6.32 | 6.32 | 5.66 |  |  |  |  | 
CC[C@H]1CN(C(c2ccc(C)cc2)c2ccc(C)cc2)[C@H](C)CN1c1cc(=O)n(C)c2ccc(C#N)nc12 [Example 1119] | 6.00 | 6.37 |  |  |  |  | 4.77 | 
C[C@@H]1CN(c2c(C#N)c(=O)n(C)c3ccc(C#N)nc23)CCN1C(c1ccc(F)cc1)c1ccc(C(F)(F)F)cc1 (single isomer, unassigned) [Example 910] |  |  |  | 5.52 | 4.96 |  |  | 4.70
CC(c1cccc2ncccc12)N1C[C@H](C)N(c2cc(=O)n(C)c3ccc(C#N)nc23)C[C@H]1C (single isomer, unassigned) [Example 639] | 4.01 | 4.74 | 4.70 |  |  |  |  | 
CC[C@@H]1CN(c2cc(=O)n(C)c3ccc(C#N)nc23)[C@@H](C)CN1C(c1ccc(F)cc1)c1cccc(C(F)(F)F)n1 (stereo partly drawn) [Example 1113] | 6.21 | 6.51 | 6.00 |  |  |  |  | 
C[C@@H]1CN(c2cc(=O)n(C)c3ccc(C#N)nc23)[C@@H](C)CN1C(c1ccc(F)cc1)c1ncccn1 (stereo partly drawn) [Example 676] | 7.21 | 5.27 |  |  |  |  | 5.74 | 
CC(c1ccc2nccnc2c1)N1C[C@H](C)N(c2cc(=O)n(C)c3ccc(C#N)nc23)C[C@H]1C (single isomer, unassigned) [Example 651] | 4.30 | 6.02 | 4.70 |  |  |  |  | 
CC[C@H]1CN(C(C)c2ccc(F)cc2F)[C@H](CC)CN1c1cc(=O)n(C)c2ccc(C#N)nc12 (single isomer, unassigned) [Example 1056] | 6.06 | 6.23 | 6.24 |  |  |  |  | 
CC[C@@H]1CN(c2cc(=O)n(C)c3ccc(C#N)nc23)[C@@H](C)CN1C(C)c1ccc(C#N)cc1 (single isomer, unassigned) [Example 1346] | 7.28 | 6.35 | 5.22 |  |  |  |  | 
CC[C@H]1CN(C(C)c2ccc(C(F)(F)F)cc2)[C@H](CC)CN1c1cc(=O)n(C)c2ccc(C#N)nc12 (single isomer, unassigned) [Example 1051] | 6.57 | 6.68 | 7.38 |  |  |  |  | 
CC(c1ccc(C#N)cc1)N1CCN(c2c(C#N)c(=O)n(C)c3ccc(C#N)nc23)C[C@H]1C (stereo partly drawn) [Example 955] |  |  |  | 6.66 | 5.52 |  |  | 4.70

Compound | pIC50 (human DGKα; liposome (LIPGLO) assay) | pIC50 (human DGKζ; liposome (LIPGLO) assay) | pEC50 (Human venous whole blood; [1]) | pIC50 (human DGKα; DGKα liposome (LIPGLO) assay) | pIC50 (human DGKζ; DGKζ liposome (LIPGLO) assay) | pEC50 (Human venous whole blood; [2]) | pEC50 (Human venous whole blood; [3]) | pEC50 (Human venous whole blood; [4])
C[C@@H]1CN(c2c(C#N)c(=O)n(C)c3ccc(C#N)nc23)CCN1Cc1cccc(C(F)(F)F)n1 [Example 991] |  |  |  | 6.51 | 6.10 | 4.96 |  | 
COCCOc1cc(C(C)N2C[C@H](C)N(c3cc(=O)n(C)c4ccc(C#N)nc34)C[C@H]2C)ccc1OC (single isomer, unassigned) [Example 1302] | 3.89 | 5.18 |  |  |  |  | 4.70 | 
CC(c1ccc(OC(F)(F)F)cc1)N1C[C@H](C)N(c2cc(=O)n(C)c3ccc(C#N)nc23)C[C@H]1CN1CCN(C)CC1 (stereo partly drawn) [Example 1417] | 4.59 | 4.19 |  |  |  |  | 4.96 | 
C[C@@H]1CN(c2c(C#N)c(=O)n(C)c3ccc(C#N)nc23)CCN1Cc1cccc(F)c1 [Example 1005] |  |  |  | 6.06 | 5.11 | 4.70 |  | 
C[C@@H]1CN(c2cc(=O)n(C)c3ccc(C#N)nc23)[C@@H](C)CN1C(c1ccc(Cl)cc1)c1ccc(F)c2c1OC(C)(C)C2 (single isomer, unassigned) [Example 458] | 5.96 | 6.96 |  |  |  |  | 6.29 | 
CC(c1ccc(C2(C#N)CC2)cc1)N1C[C@H](C)N(c2cc(=O)n(C)c3ccc(C#N)nc23)C[C@H]1C (stereo partly drawn) [Example 1253] | 5.72 | 6.47 |  |  |  |  | 5.74 | 
CC(C)c1nnc(C(c2ccc(F)cc2)N2C[C@H](C)N(c3cc(=O)n(C)c4ccc(C#N)nc34)C[C@H]2C)s1 (single isomer, unassigned) [Example 773] |  |  |  | 6.12 | 6.15 |  |  | 5.10
CC(c1ccc(C(F)(F)F)cc1)N1C[C@@H](C)N(c2cc(=O)n(C)c3ccc(C#N)nc23)C[C@@H]1C (single isomer, unassigned) [Example 346] | 5.89 | 5.82 | 5.96 |  |  |  |  | 
CC(c1ccc(-n2cncn2)cc1)N1C[C@H](C)N(c2cc(=O)n(C)c3ccc(C#N)nc23)C[C@H]1C (single isomer, unassigned) [Example 1239] | 4.59 | 4.64 | 4.70 |  |  |  |  | 
Cc1ccc(C(C)N2C[C@H](C)N(c3c(C#N)c(=O)n(C)c4ccc(C#N)nc34)C[C@H]2C)cc1 (single isomer, unassigned) [Example 784] |  |  |  | 5.92 | 5.59 |  |  | 5.70
Cc1c(F)cccc1CN1CCN(c2c(C#N)c(=O)n(C)c3ccc(C#N)nc23)C[C@H]1C [Example 1010] |  |  |  | 5.74 | 6.00 | 5.70 |  | 
C[C@@H]1CN(c2c(C#N)c(=O)n(C)c3ccc(C#N)nc23)[C@@H](C)CN1C(c1ccc(F)cc1)c1cn(C)cn1 (single isomer, unassigned) [Example 853] |  |  |  | 4.72 | 4.42 | 4.70 |  | 
C[C@@H]1CN(c2cc(=O)n(C)c3ccc(C#N)nc23)[C@@H](C)CN1C(c1ccc(F)cc1)C1CCCCO1 (single isomer, unassigned) [Example 358] | 5.05 | 4.68 |  |  |  |  | 6.00 | 
CC(c1ccc(OC(F)(F)F)c(F)c1)N1C[C@H](C)N(c2cc(=O)n(C)c3ccc(C#N)nc23)C[C@H]1C (single isomer, unassigned) [Example 1270] | 5.77 | 5.57 | 5.10 |  |  |  |  | 
C[C@@H]1CN(c2cc(=O)n(C)c3ccc(C#N)nc23)[C@@H](C)CN1C(c1ccc(F)cc1)c1cnc(C2CC2)s1 (single isomer, unassigned) [Example 728] |  |  |  | 7.20 | 7.36 |  |  | 6.04
[2H]C(C)(c1ccc(F)cc1)N1C[C@H](C)N(c2c(F)c(=O)n(C)c3ccc(C#N)nc23)C[C@H]1C (single isomer, unassigned) [Example 424] | 6.54 | 4.43 | 4.80 |  |  |  |  | 
